Patent US10745361B2, “Piperazine derivatives having multimodal activity against pain” (ESTEVE PHARMACEUTICALS, S.A., priority 2013, dated 2020)

target: human σ1 receptor and human μ-opioid receptor; assay: Human σ1 receptor radioligand assay and human μ-opioid receptor radioligand assay (μ and σ1 dual binding); design: key to μ and σ1 dual binding: +: Both Ki-μ and Ki-σ1>=500 nM; ++: One K, <500 nM while the other K, is >=500 nM; +++: Both Ki-μ and Ki-σ1<500 nM; ++++: Both Ki-μ and Ki-σ1<100 nM; conditions: one class for both Ki: σ1 ([3H](+)-pentazocine, transfected HEK-293 membranes) and μ-opioid ([3H]-DAMGO, transfected CHO-K1 membranes)
Method: Human σ1 Receptor Radioligand Assay
To investigate binding properties of σ1 receptor ligands to human σ1 receptor, transfected HEK-293 membranes and [^3H](+)-pentazocine (Perkin Elmer, NET-1056), as the radioligand, were used. The assay was carried out with 7 μg of membrane suspension, 5 nM of [^3H](+)-pentazocine in either absence or presence of either buffer or 10 μM Haloperidol for total and non-specific binding, respectively. Binding buffer contained Tris-HCl 50 mM at pH 8. Plates were incubated at 37° C. for 120 minutes. After the incubation period, the reaction mix was then transferred to MultiScreen HTS, FC plates (Millipore), filtered and plates were washed 3 times with ice-cold 10 mM Tris-HCL (pH7.4). Filters were dried and counted at approximately 40% efficiency in a MicroBeta scintillation counter (Perkin-Elmer) using EcoScint liquid scintillation cocktail
Human μ-Opioid Receptor Radioligand Assay
To investigate binding properties of p-opioid receptor ligands to human p-opioid receptor, transfected CHO-K1 cell membranes and [^3H]-DAMGO (Perkin Elmer, ES-542-C), as the radioligand, were used. The assay was carried out with 20 μg of membrane suspension, 1 nM of [^3H]-DAMGO in either absence or presence of either buffer or 10 μM Naloxone for total and non-specific binding, respectively. Binding buffer contained Tris-HCl 50 mM, MgCl2 5 mM at pH 7.4. Plates were incubated at 27° C. for 60 minutes. After the incubation period, the reaction mix was then transferred to MultiScreen HTS, FC plates (Millipore), filtered and plates were washed 3 times with ice-cold 10 mM Tris-HCL (pH 7.4). Filters were dried and counted at approximately 40% efficiency in a MicroBeta scintillation counter (Perkin-Elmer) using
EcoScint liquid scintillation cocktail.
The following scale as been adopted for representing the binding to the σ1 receptor and the μ-opiod receptor expressed as Ki: • + Both Ki-μ and Ki-σ1>=500 nM • ++ One K, <500 nM while the other K, is >=500 nM • +++ Both Ki-μ and Ki-σ1<500 nM • ++++ Both Ki-μ and Ki-σ1<100 nM

SMILES	Ki [nM]	μ and σ1 dual binding
CC(C)S(=O)(=O)Nc1cccc(N2CCCN(Cc3cn(-c4ccccc4F)nn3)CC2)n1 [Example 60, N-(6-(4-((1-(2-fluorophenyl)-1H-1,2,3-triazol-4-yl)methyl)-1,4-diazepan-1-yl)pyridin-2-yl)propane-2-sulfonamide]	< 500	–
O=S(=O)(Nc1cccc(N2CCN(Cc3cn(-c4ccccc4F)nn3)CC2)n1)C1CC1 [Example 44, N-(6-(4-((1-(2-fluorophenyl)-1H-1,2,3-triazol-4-yl)methyl)piperazin-1-yl)pyridin-2-yl)cyclopropanesulfonamide]	< 500	–
O=S(=O)(Nc1cccc(N2CCN(Cc3cn(-c4ccccc4)nn3)CC2)c1)C1CC1 [Example 20, N-(3-(4-((1-phenyl-1H-1,2,3-triazol-4-yl)methyl)piperazin-1-yl)phenyl)cyclopropanesulfonamide]	< 100	–
CC(C)S(=O)(=O)Nc1cccc(N2CC3CN(Cc4cn(-c5ccccc5F)nn4)CC3C2)n1 (stereo not shown) [Example 61, N-(6-(5-((1-(2-fluorophenyl)-1H-1,2,3-triazol-4-yl)methyl)hexahydropyrrolo[3,4-c]pyrrol-2(1H)-yl)pyridin-2-yl)propane-2-sulfonamide]	–	++
CS(=O)(=O)Nc1cccc(N2CCN(Cc3cn(-c4ccc(C(F)(F)F)nc4)nn3)CC2)c1 [Example 8, N-(3-(4-((1-(6-(trifluoromethyl)pyridin-3-yl)-1H-1,2,3-triazol-4-yl)methyl)piperazin-1-yl)phenyl)methanesulfonamide]	≥ 500	–
CC(C)S(=O)(=O)Nc1cccc(N2CCN(Cc3cnn(-c4ccccc4)c3)CC2)c1 [Example 36, N-(3-(4-((1-phenyl-1H-pyrazol-4-yl)methyl)piperazin-1-yl)phenyl)propane-2-sulfonamide]	< 100	–
CN(c1cccc(NS(C)(=O)=O)c1)C1CCN(Cc2cn(-c3ccccc3)nn2)C1 (stereo not shown) [Example 14, N-(3-(methyl(1-((1-phenyl-1H-1,2,3-triazol-4-yl)methyl)pyrrolidin-3-yl)amino)phenyl)methanesulfonamide]	< 100	–
CC(C)S(=O)(=O)Nc1cccc(N2CCN(Cc3cn(-c4ccc(Cl)cc4F)nn3)CC2)n1 [Example 50, N-(6-(4-((1-(4-chloro-2-fluorophenyl)-1H-1,2,3-triazol-4-yl)methyl)piperazin-1-yl)pyridin-2-yl)propane-2-sulfonamide]	–	++
Nc1cccc(N2CCN(Cc3cn(-c4ccccc4)nn3)CC2)n1 [Example 63, 6-(4-((1-phenyl-1H-1,2,3-triazol-4-yl)methyl)piperazin-1-yl)pyridin-2-amine]	≥ 500	–
O=S(=O)(Nc1cccc(N2CCN(Cc3cn(-c4ccc(C(F)(F)F)cc4)nn3)CC2)n1)C1CC1 [Example 68, N-(6-(4-((1-(4-(trifluoromethyl)phenyl)-1H-1,2,3-triazol-4-yl)methyl)piperazin-1-yl)pyridin-2-yl)cyclopropanesulfonamide]	–	++
CC(C)S(=O)(=O)Nc1cccc(N2CCN(Cc3cn(-c4c(F)cccc4F)nn3)CC2)n1 [Example 48, N-(6-(4-((1-(2,6-difluorophenyl)-1H-1,2,3-triazol-4-yl)methyl)piperazin-1-yl)pyridin-2-yl)propane-2-sulfonamide]	–	++
O=S(=O)(Nc1cccc(N2CCN(Cc3cn(-c4ccccc4F)cn3)CC2)n1)C1CC1 [Example 71, N-(6-(4-((1-(2-fluorophenyl)-1H-imidazol-4-yl)methyl)piperazin-1-yl)pyridin-2-yl)cyclopropanesulfonamide]	< 500	–
CC(C)S(=O)(=O)Nc1cccc(N2CCN(Cc3cnn(-c4ccccn4)c3)CC2)c1 [Example 39, N-(3-(4-((1-(pyridin-2-yl)-1H-pyrazol-4-yl)methyl)piperazin-1-yl)phenyl)propane-2-sulfonamide]	< 100	–
CC(C)S(=O)(=O)Nc1ccc(Cl)c(N2CCN(Cc3cn(-c4ccccc4)nn3)CC2)n1 [Example 52, N-(5-chloro-6-(4-((1-phenyl-1H-1,2,3-triazol-4-yl)methyl)piperazin-1-yl)pyridin-2-yl)propane-2-sulfonamide]	< 500	–
O=S(=O)(Nc1cccc(N2CCN(Cc3cn(-c4ccc(C(F)(F)F)cc4F)nn3)CC2)n1)C1CC1 [Example 69, N-(6-(4-((1-(2-fluoro-4-(trifluoromethyl)phenyl)-1H-1,2,3-triazol-4-yl)methyl)piperazin-1-yl)pyridin-2-yl)cyclopropanesulfonamide]	–	++
O=S(=O)(Nc1cccc(N2CCN(Cc3cn(-c4cc(F)ccc4F)nn3)CC2)n1)C1CC1 [Example 65, N-(6-(4-((1-(2,5-difluorophenyl)-1H-1,2,3-triazol-4-yl)methyl)piperazin-1-yl)pyridin-2-yl)cyclopropanesulfonamide]	–	++
